According to US20100015071A1, “Compositions for Improving Skin Conditions Comprising Alpha-Bisabolol as an Active Ingredient” (Biospectrum Inc., priority 2007, published 2010):
One block for each compound: values may come before it.

What was measured:
COX (cyclooxygenase) = experiment: COX inhibitory ability in LPS-treated THP-1 cells; type: cell-based, human; details: LPS alone = 100
Experimental: To determine whether α-bisabolol had anti-inflammatory effects, the experiment of COX (cyclooxygenase) inhibitory ability was carried out using human monocytic cell, THP-1 cell (Korean Cell Line Bank) according to conventional method. The COX activity was measured in accordance with Methods in Enzymology 43:9 (1994) published by F. J. Van de Ouderaaa and Muytenhek. THP-1 cell line was cultivated and aliquoted into 24-well plate. The incubation volume per well was adjusted to 500 μl, 2 μl of the sample compound, which dissolved in lipopolysaccahride (1 μg/ml, Sigma) and solvents described in the following Table respectively, was added and cultivated for 24-48 hr under the same condition. After 24-48 hr, calcium ionophore (Sigma) and [1-14C] arachidonic acid 1 μl (in EtOH, 0.1 μCi/ml, Sigma) were added to each well, and cultivated for 10 min under the same condition. Following the cultivation, citric acid was added to each well for adjusting to pH 3.5, shaked, each 500 μl of cultivation solution taken from the plate was aliquoted into micro centrifuge tube, 700 μl of ethylacetate was added to thereto, and the solution was shaking extracted for 10 min. 500 μl of ethylacetate layer was concentrated using speed vacuum dryer for 20 min, 20 μl of the residual was dissolved in ethylacetate, and the resultant was employed with authentic standard in TLC plate. The radioactive band was identified by authentic eicosanoid standards, the radioactivity of the identified band was measured using BAS 2000 bio-imaging analyzer (Fuji, JP) (Table 7).

[1] = tested on: procollagen type I C-peptide (PICP); experiment: Collagen synthesis (procollagen type I C-peptide) in human fibroblasts; type: cell-based; details: 24 hr
Experimental: Human fibroblasts (commercially available from pacific) were seeded into a 6-well plate (2×10^5 cells/well) and the well plate was incubated in a 5% CO2 incubator for 24 hr at 37° C. After 24 hr, the medium in each well was removed and cells were incubated with various concentrations of samples for 24 hr. Afterwards, the cell medium was collected and was used as samples. The potential of collagen synthesis was determined by measuring the amount of procollagen type I C-peptide (PICP) in cell medium using Procollagen Type I C-peptide EIA kit (MK101, Takara, Kyoto, Japan) in accordance with manufacturer's protocol.

Interleukin-2 promoter = experiment: Interleukin-2 luciferase reporter activity in PHA-activated Jurkat cells; type: cell-based, human; details: 24 hr, PHA alone = 100
Experimental: Interleukin-2 promoter was reported to play an important role in the generation of cytokine related to inflammatory. The activity of interleukin-2 luciferase was measured using the following method: Human T lymphocytes cell line, 1×10^6 of Jurkat cell (Korean Cell Line Bank) were aliquoted into each well of 6-wells, IL-2 luciferase reporter plasmid DNA (Stratagene) was transfected using superfect transfection reagent (In vitrogen). 24 hr after transfection, PHA (Phytohemaglutinin, Sigma) (100 ng/ml) was treated to activate Jurkat cell and each samples was treated with varying concentration. Following 24 hr, the cell was collected and the luciferase activity was measured using luminometer (Berthold Technologies GmbH&Co.KG, Germany).

[2] = Anti-oxidation: removal of superoxide anion (SOD Assay Kit-WST); type: biochemical
Experimental: Superoxide dismutase (SOD) has been known as an anti-oxidation-catalyzing enzyme which converts superoxide anion into H2O2 and O2. This experiment evaluates anti-oxidation activity of samples by observing removal of superoxide anion generated by xanthine oxidase. The experiment was performed using the kit (SOD Assay Kit-WST) purchased from Dojindo (JP) in accordance with manufacture's protocol.

collagenase = experiment: Collagenase activity in human fibroblast medium (Type 1 collagenase assay kit); type: cell-based; details: human fibroblasts, 24 hr
Experimental: Human fibroblasts (commercially available from pacific) were seeded into a 6-well plate (2×10^5 cells/well) and the well plate was incubated in a 5% CO2 incubator for 24 hr at 37° C. After 24 hr, the medium in each well was removed and cells were incubated with various concentrations of samples for 24 hr. Afterwards, the cell medium was collected and was used as samples.
For measuring the collagenase activity, antibodies against collagenase was used. The collagenase activity was measured using a Type 1 collagenase assay kit (Amersham Biosciences, RPN2629) and the absorbance values were obtain using an ELISA reader (Bio-Tek ELx808™ Series Ultra Microplate Reader, U.K). The measured average values were represented as mean±standard deviation.

brown guinea pigs = experiment: Skin whitening effect in UV-pigmented brown guinea pigs; type: in vivo, guinea pig; details: for Whitening effects (ΔL): once or twice a day for 50 days, control ΔL 0.35
Experimental: A skin whitening effect of α-bisabolol was measured using brown guinea pigs (Charles River Laboratories, Inc.) pigmentation of which is known to increase upon exposure to ultraviolet light like human.
To induce pigmentation in the brown guinea pig by ultraviolet (UV), aluminum foil with square windows of 3×3 cm^2 was adhered to hair-removed abdominal skin of brown guinea pig, and then UV light was irradiated thereon with a SE lamp (wavelength 290-320 nm, Toshiba) (total irradiation energy=1350 mJ/cm^2). After UV irradiation, the aluminum foil was removed and samples (α-bisabolol or arbutin) were applied as the following method. Increased pigmentation was observed on 2-3 days after UV irradiation and reached a maximum after about 2 weeks. Following the period of time showing the maximum pigmentation, samples were applied.
The application of samples was performed once or twice a day for 50 days. The samples were dissolved or diluted in a solvent (Propylene glycol:ethanol:water 5:3:2) and applied by a swab. The control with only the solvent was applied to another site. The occurrence of cumulative irritation was also examined.
The degree of pigmentation of skin was determined using a chromameter (CR2002, MINOLTA, JP) to estimate the effects of applied samples. La*b* calorimetric system was used to classify color and L* value was used as standard in Example. The L* value was corrected using white board standard and was measured more than five times at one site. Pigmentation was evenly distributed. Skin color differences (ΔL*) between application starting point and application end point were obtained and used to evaluate effects of samples.
ΔL*=L* value on […] after application−L* value on application starting day Equation 1
ΔL* values were obtained for control and sample application to evaluate skin whitening effects.

B16 mouse melanoma cells [3] = experiment: Cytotoxicity at the test concentrations in B16 melanoma cells; type: cell-based; details: 1 ppm, 5 ppm and 10 ppm
intracellular tyrosinase = target: T1, intracellular tyrosinase (Mus musculus, UniProt P11344); experiment: Inhibition of intracellular tyrosinase activity in murine melanoma (B-16 F1) cells; details: B16-F1, read-out: Inhibitory rate of intracellular tyrosinase activity (%)
T1 sequence (P11344 19-533): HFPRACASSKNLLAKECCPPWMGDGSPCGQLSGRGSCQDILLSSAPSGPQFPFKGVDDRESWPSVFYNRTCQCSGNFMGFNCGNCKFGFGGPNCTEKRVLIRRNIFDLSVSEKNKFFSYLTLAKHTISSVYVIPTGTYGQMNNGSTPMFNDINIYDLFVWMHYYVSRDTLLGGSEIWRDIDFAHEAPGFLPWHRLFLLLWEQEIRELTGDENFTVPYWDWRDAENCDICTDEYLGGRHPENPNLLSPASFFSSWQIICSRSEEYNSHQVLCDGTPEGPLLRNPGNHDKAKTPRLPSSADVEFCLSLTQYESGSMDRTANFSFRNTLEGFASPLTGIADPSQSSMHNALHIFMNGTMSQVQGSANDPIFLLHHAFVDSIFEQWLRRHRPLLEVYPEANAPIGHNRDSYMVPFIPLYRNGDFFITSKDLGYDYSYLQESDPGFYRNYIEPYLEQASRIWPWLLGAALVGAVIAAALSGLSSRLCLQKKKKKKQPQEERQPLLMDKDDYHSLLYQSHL
Experimental: After measuring the inhibition of melanin production by α-bisabolol using B16 mouse melanoma cells (Korean Cell Line Bank), the measurement was compared with that for the inhibition of intracellular tyrosinase activities by arbutin, known as a melanin production inhibitor. Murine melanoma (B-16 F1) cells were seeded into each well of a 6-well plate (1×10^5 cells/well) in DMEM containing 10% FBS (fetal bovine serum) and the cells were cultured to about more than 80% adherence by incubating in a CO2 incubator under conditions of 37° C. and 5.0% CO2. After cultivation, the medium was removed and samples were replaced in medium diluted at suitable concentration, followed by incubating for 3 days under conditions of 37° C. and 5.0% CO2. […] The cells removing medium were washed with PBS (phosphate buffer saline) and treated with trypsin to collect cells. The number of the collected cells was calculated using hematocytometer, centrifuged at 5,000 to 10,000 rpm for 10 min and the supernatant was eliminated, thereby obtaining pellets. This cell pellets were lysated using lysis buffer, centrifuged at 12,000 rpm for 10 min and the supernatant was collected. Then, the cell solution was measured for absorbance at 492 nm using microplate reader and the activity of tyrosinase per cell constant number was estimated.

[4] = Obesity inhibition test in ICR male mice (body weight); type: in vivo, mouse; details: single forced administration
Experimental: An obesity inhibition test was performed by the following method using well-known laboratory animals. The process for determining obesity-inhibitory activity was as follows: Crj: 7 week-old ICR male mice (obtained from Charles River Japan Ltd) weeks were preliminarily fed for 1 week, then classified into groups each having 7 animals and subjected to the test. The animals were fed under controlled conditions at a temperature of 23±1° C., and a humidity of 55±5% under illumination for 12 hours per day. They were fed with a feed Labo MR (manufactured by Nippon Nosan) and allowed to take water ad libitum. α-Bisabolol was present in the form of liposome (prepared with 5% lecithin) to the final concentration of either 0.1% or 1%. The concentration of each sample solution was adjusted so that 0.1 ml of the solution was given per 10 g body weight of mice. The doses employed were […] and 1 g/kg. To a control group, 5% lecithin emulsion was administered. After fasting the mice, the sample was administered once by force on the next day. During the test period over 2 weeks, the body weight and general conditions were monitored.

B16 mouse melanoma cells [5] = experiment: Inhibition of melanin production in B16 mouse melanoma cells; type: cell-based; details: 72 h, B16 F10 cells, 3 days, read-out: Inhibitory rate of melanin production (%)
Experimental: This cell pellets were dried at 60° C., 100 μl of 1M NaOH containing 10% DMSO was added to thereto, and intracellular melanin was obtained in incubator at 60° C.

SMILES: CC(C)=CCC[C@](C)(O)C1CC=C(C)CC1 (stereo in doubt) [α-Bisabolol, (2S)-6-methyl-2-[(1R)-4-methyl-1-cyclohex-3-enyl]hept-5-en-2ol]
- COX activities (%) (COX (cyclooxygenase); 1 ppm with LPS (1 μg/ml)): 95%
- COX activities (%) (COX (cyclooxygenase); 5 ppm with LPS (1 μg/ml)): 75%
- COX activities (%) (COX (cyclooxygenase); 10 ppm with LPS (1 μg/ml)): 67%
- Increase of collagen synthesis (%) ([1]; 1 ppm): 23%
- Increase of collagen synthesis (%) ([1]; 5 ppm): 43%
- Increase of collagen synthesis (%) ([1]; 10 ppm): 76%
- IL-2 luciferase activities (Interleukin-2 promoter; 1 ppm with PHA (100 ng/ml)): 92
- IL-2 luciferase activities (Interleukin-2 promoter; 5 ppm with PHA (100 ng/ml)): 72
- IL-2 luciferase activities (Interleukin-2 promoter; 10 ppm with PHA (100 ng/ml)): 58
- Removal rate of superoxide anion (%) ([2]; 1 ppm): 8%
- Removal rate of superoxide anion (%) ([2]; 5 ppm): 18%
- Removal rate of superoxide anion (%) ([2]; 10 ppm): 34%
- Inhibition of collagenase (%) (collagenase; 1 ppm): 12%
- Inhibition of collagenase (%) (collagenase; 5 ppm): 28%
- Inhibition of collagenase (%) (collagenase; 10 ppm): 43%
- Whitening effects (ΔL) (brown guinea pigs; 0.2 % topical): 0.42
- Whitening effects (ΔL) (brown guinea pigs; 1.0 % topical): 0.67
- Cumulative irritation (brown guinea pigs; topical on brown guinea pig skin for 50 days): no observation of cumulative irritation
- Cytotoxicity (B16 mouse melanoma cells [3]): did not show cytotoxicity
- inhibition at 1 ppm (intracellular tyrosinase): 13%
- inhibition at 5 ppm (intracellular tyrosinase): 38%
- inhibition at 10 ppm (intracellular tyrosinase): 58%
- Body weight ([4]; 0.1% in liposome, day 5, untreated 24): 24 g
- Body weight ([4]; 0.1% in liposome, day 10, untreated 28): 24 g
- Body weight ([4]; 0.1% in liposome, day 15, untreated 34): 26 g
- Body weight ([4]; 1% in liposome, day 5, untreated 24): 23 g
- Body weight ([4]; 1% in liposome, day 10, untreated 28): 24 g
- Body weight ([4]; 1% in liposome, day 15, untreated 34): 26 g
- inhibition at 1 ppm (B16 mouse melanoma cells [5]; 1 ppm): 24%
- inhibition at 5 ppm (B16 mouse melanoma cells [5]): 36%
- inhibition at 10 ppm (B16 mouse melanoma cells [5]; 10 ppm): 49%

- inhibition at 5 ppm (intracellular tyrosinase): 45%
SMILES: OC[C@H]1O[C@@H](Oc2ccc(O)cc2)[C@H](O)[C@@H](O)[C@@H]1O [Arbutin, reference compound]
- Whitening effects (ΔL) (brown guinea pigs; 1.0 % topical): 0.54
- inhibition at 5 ppm (B16 mouse melanoma cells [5]): 22%
